From ChEMBL document CHEMBL1131418, “Antiviral oligo- and polyribonucleotides containing selected triazolo[2,3-a]purines” (J Med Chem, 1998)

How the values were obtained:
[1] = Therapeutic index for anti-HIV activity against HIV-IIIB in CEM-SS cells; format: cell-based
[2] = Therapeutic index for anti-HCMV activity against AD-169 strain in MRC-5 cells; format: cell-based; conditions: human, mrc5
MRC5 [3] = test: Cytotoxic dose for anti-HCMV activity against AD-169 strain in MRC-5 cells; format: functional; conditions: Homo sapiens, read-out: CD50 (the source's name)
MRC5 [4] = test: Inhibitory concentration for anti-HCMV activity against AD-169 strain in MRC-5 cells; format: functional, cell-based; conditions: Homo sapiens

Row | Structure (SMILES) | TI [1] | TI [2] | CC50 (MRC5 [3]) | IC50 (MRC5 [4])
1 | CCN(CC)C(=S)[S][Na] [DITIOCARB SODIUM] | > 67 | – | – | –
2 | Nc1nc(O)c2ncn(COC(CO)CO)c2n1 [GANCICLOVIR] | – | > 20 | > 125 µM | 6.3 µM
